Data on 26 compounds can be found in patent publication US20230099344A1, “COMPOUNDS AND METHODS FOR THE TARGETED DEGRADATION OF IRAK-4” (Arvinas Operations, Inc., priority 2021, published 2023).

For this assay, the target named is T1, IRAK-4 (Homo sapiens, UniProt Q9NWZ3).
T1 sequence (Q9NWZ3 1-460): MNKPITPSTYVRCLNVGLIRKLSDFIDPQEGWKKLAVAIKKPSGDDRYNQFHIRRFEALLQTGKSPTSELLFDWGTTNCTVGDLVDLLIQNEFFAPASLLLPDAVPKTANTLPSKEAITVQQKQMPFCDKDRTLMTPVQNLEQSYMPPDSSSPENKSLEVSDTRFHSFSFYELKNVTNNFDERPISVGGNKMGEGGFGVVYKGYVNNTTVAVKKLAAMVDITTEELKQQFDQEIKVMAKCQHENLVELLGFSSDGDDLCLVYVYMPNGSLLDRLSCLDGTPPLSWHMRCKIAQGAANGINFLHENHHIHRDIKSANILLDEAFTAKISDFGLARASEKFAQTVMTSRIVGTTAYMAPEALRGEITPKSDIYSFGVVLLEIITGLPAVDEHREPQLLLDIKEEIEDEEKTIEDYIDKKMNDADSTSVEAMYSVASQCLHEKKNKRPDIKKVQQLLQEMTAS
The assay is described as follows: IRAK-4 ELISA, PBMC degradation. On the set-up: endogenous in cells; host or cells: PBMC. The following applies: treated overnight. The class given is cell-based. On the procedure:
Reagents: Human IRAK-4 Matched Antibody Pair Kit (Abcam ab218182) and ELISA Accessory Pack (Abcam ab210905).
Cell Treatment and Lysis:
1. OCI-Ly10: 200,000 cells are seeded at 1×10^6/ml in 96-well U-bottom plates 200 ul per well, treated with compound the same day. Incubate overnight. 2. PBMC: 800,000 cells are seeded at 2×10^6/ml in 96-well U-bottom deep-well plates, 400 ul per well, treated with compound the same day. Incubate overnight.
Cell lysate is collected and analyzed by ELISA for IRAK-4 levels.
(In general: In an ELISA, binding on a coated surface is turned into a signal by an enzyme label.)

The structures appear in SMILES notation.

A word on the DC50: it is the midpoint of the concentration-degradation curve. A low value points to a more potent degrader. What is called Dmax is the largest share of the target that was removed. A higher Dmax goes with deep degradation. In the case of `O=C1CCC(N2Cc3cc(N4CC(N5CCC(N6Cc7cc(NC(=O)c8cnn9cccnc89)c(N8CCC(N9CCC9)CC8)cc7C6=O)CC5)C4)ccc3C2=O)C(=O)N1` (centres unmarked) [Example 39], the DC50 fell in the range of 5 to 10 nM; the greatest degradation seen (Dmax) is at least 90%; the “PBMC DC90” value is “C (C represents a DC90 value ≥25.0 nM and <50 nM)”.
On to `CC(C)Oc1cc2c(cc1NC(=O)c1cnn3cccnc13)CN(C1CCC(N(CC(F)F)C3CN(c4ccc5c(c4)C(=O)N(C4CCC(=O)NC4=O)C5=O)C3)CC1)C2=O` (centres unmarked) [Example 331], for which the 50% degradation concentration (DC50) lay in the range of 1 to 5 nM; the Dmax is at least 90%; the “PBMC DC90” value is “B (B represents a DC90 value ≥10.0 nM and <25.0 nM)”.
`O=C1CCC(N2C(=O)c3ccc(N4CCC(N5CCC(n6cc7cc(NC(=O)c8cnn9cccnc89)c(OCC8CC8)cc7n6)CC5)CC4)cc3C2=O)C(=O)N1` (centres unmarked) [Example 170]: the DC50 is under 1 nM, the Dmax was at least 90% and the “PBMC DC90” value was “A (A represents a DC90 value <10.0 nM)”.
Regarding `CC(C)Oc1cc2c(cc1NC(=O)c1cnn3cccnc13)CN([C@H]1CC[C@H](N3CC4(CN(c5ccc6c(c5)C(=O)N(C5CCC(=O)NC5=O)C6=O)C4)C3)CC1)C2=O` (some centres unmarked) [Example 68], the half-maximal degradation concentration (DC50) was under 1 nM, the “PBMC DC90” value is on record as “A (A represents a DC90 value <10.0 nM)” and the “PBMC Dmax” value is listed as “A (A represents a Dmax value ≥90)”.
Turning to `CC(C)Oc1cc2c(cc1NC(=O)c1cnn3cccnc13)CN(C1CCN(CCOc3ccc4c(c3)CN(C3CCC(=O)NC3=O)C4=O)CC1)C2=O` (centres unmarked) [Example 3], the DC50 was at least 10 nM, the Dmax was in the range of 80 to 90% and the “PBMC DC90” value turned out to be 3 nM.
For `CN(C1CN(c2ccc3c(c2)CN(C2CCC(=O)NC2=O)C3=O)C1)[C@H]1CC[C@H](n2cc3cc(NC(=O)c4cnn5cccnc45)c(OCC4CC4)cc3c2)CC1` (some centres unmarked) [Example 324] the same measures were under 1 nM, at least 90% and “A (A represents a DC90 value <10.0 nM)”.
For `CC(C)Oc1cc2nn(C3CCN(CC4CCN(c5ccc6c(c5)C(=O)N(C5CCC(=O)NC5=O)C6=O)CC4)CC3)cc2cc1NC(=O)c1cnn2cccnc12` (centres unmarked) [Example 138] the same measures were under 1 nM, at least 90% and “A (A represents a DC90 value <10.0 nM)”.
In the same order, the values of `CC(C)Oc1cc2nn(C3CCN(CC4(F)CN(c5cc6c(cc5F)C(=O)N(C5CCC(=O)NC5=O)C6=O)C4)CC3)cc2cc1NC(=O)c1cnn2cccnc12` (centres unmarked) [Example 189] are under 1 nM, at least 90% and “A (A represents a DC90 value <10.0 nM)”.
For `COc1cc(N2CC(F)(CN3CCC(n4cc5cc(NC(=O)c6cnn7cccnc67)c(OCC6CC6)cc5n4)CC3)C2)cc2c1C(=O)N(C1CCC(=O)NC1=O)C2` (centres unmarked) [Example 242], the DC50 was 1 to 5 nM, the Dmax lay within 80 to 90% and the “PBMC DC90” value is given as “A (A represents a DC90 value <10.0 nM)”.
In the same order, the values of `O=C1CCC(N2C(=O)c3ccc(N4CCC(CN5CCC(n6cc7cc(NC(=O)c8cnn9cccnc89)c(OCC(F)F)cc7n6)CC5)CC4)cc3C2=O)C(=O)N1` (centres unmarked) [Example 148] are under 1 nM, 80 to 90% and “A (A represents a DC90 value <10.0 nM)”.
Consider `CCN(C1CN(c2ccc(C(=O)NC3CCC(=O)NC3=O)c(F)c2)C1)[C@H]1CC[C@H](n2cc3cc(NC(=O)c4cnn5cccnc45)c(OC(C)C)cc3n2)CC1` (some centres unmarked) [Example 322], for which the DC50 was in the range of 1 to 5 nM, the Dmax was at least 90% and the “PBMC DC90” value is “A (A represents a DC90 value <10.0 nM)”.
In the same order, the values of `CC(C)Oc1cc2c(cc1NC(=O)c1cnn3cccnc13)CN(C1CCC(N(C)C3CCN(c4ccc5c(c4)C(=O)N(C4CCC(=O)NC4=O)C5=O)CC3)CC1)C2=O` (centres unmarked) [Example 316] are under 1 nM, at least 90% and “A (A represents a DC90 value <10.0 nM)”.
Regarding `CC(C)Oc1cc2c(cc1NC(=O)c1cnn3cccnc13)CN(C1CCC(N(C)C3CN(c4ccc5c(c4)CN(C4CCC(=O)NC4=O)C5=O)C3)CC1)C2=O` (centres unmarked) [Example 329], the “PBMC DC90” value is on record as “A (A represents a DC90 value <10.0 nM)” and the “PBMC Dmax” value was “A (A represents a Dmax value ≥90)”.
`CC(C)Oc1cc2c(cc1NC(=O)c1cnn3ccc(N4CCOCC4)nc13)CN(C1CCC(N(C)C3CN(c4ccc5c(c4)CN(C4CCC(=O)NC4=O)C5=O)C3)CC1)C2=O` (centres unmarked) [Example 315]: the DC50 lay within 5 to 10 nM, the maximal degradation (Dmax) is under 70% and the “PBMC DC90” value is recorded as “D (D represents a DC90 value ≥50 nM)”.
In the case of `O=C1CCC(N2C(=O)c3ccc(N4CC(F)(CN5CCC(N6Cc7cc(NC(=O)c8cnn9cccnc89)c(N8CCOCC8)cc7C6=O)CC5)C4)cc3C2=O)C(=O)N1` (centres unmarked) [Example 101], the DC50 was 1 to 5 nM; the Dmax fell in the range of 70 to 80%; the “PBMC DC90” value was “B (B represents a DC90 value ≥10.0 nM and <25.0 nM)”.
Turning to `O=C1CCC(N2C(=O)c3ccc(N4CC(F)(CN5CCC(n6cc7cc(NC(=O)c8cnn9ccc(N%10CCOCC%10)nc89)c(OCC8CC8)cc7n6)CC5)C4)cc3C2=O)C(=O)N1` (centres unmarked) [Example 233], the half-maximal degradation concentration (DC50) was in the range of 5 to 10 nM; the greatest degradation seen (Dmax) lay within 80 to 90%; the “PBMC DC90” value was “C (C represents a DC90 value ≥25.0 nM and <50 nM)”.
As to `CC(C)Oc1cc2nn([C@H]3CC[C@H](N(C)C4CN(c5ccc6c(c5)C(=O)N(C5CCC(=O)NC5=O)C6=O)C4)CC3)cc2cc1NC(=O)c1cnn2cccnc12` (some centres unmarked) [Example 318], the DC50 is under 1 nM, the Dmax is at least 90% and the “PBMC DC90” value is listed as “A (A represents a DC90 value <10.0 nM)”.
`O=C1CCC(N2C(=O)c3ccc(N4CC(F)(CN5CCC(N6Cc7cc(NC(=O)c8cnn9cccnc89)c(OC8CCC8)cc7C6=O)CC5)C4)cc3C2=O)C(=O)N1` (centres unmarked) [Example 215]: the DC50 lay in the range of 1 to 5 nM, the maximal degradation (Dmax) lay within 70 to 80% and the “PBMC DC90” value was “A (A represents a DC90 value <10.0 nM)”.
In the same order, the values of `CN1CC(Oc2cc3nn(C4CCN(CC5CN(c6ccc7c(c6)C(=O)N(C6CCC(=O)NC6=O)C7=O)C5)CC4)cc3cc2NC(=O)c2cnn3cccnc23)C1` (centres unmarked) [Example 151] are 5 to 10 nM, 70 to 80% and “D (D represents a DC90 value ≥50 nM)”.
In the same order, the values of `CN(C1CCC(N2Cc3cc(NC(=O)c4cnn5cccnc45)c(OC4CC4)cc3C2=O)CC1)C1CCN(c2ccc3c(c2)C(=O)N(C2CCC(=O)NC2=O)C3=O)CC1` (centres unmarked) [Example 342] are under 1 nM, at least 90% and “A (A represents a DC90 value <10.0 nM)”.
In the same order, the values of `O=C1CCC(N2C(=O)c3ccc(N4CC(CN5CCC([C@H](F)CN6Cc7cc(NC(=O)c8cnn9cccnc89)c(N8CCOCC8)cc7C6=O)CC5)C4)cc3C2=O)C(=O)N1` (stereo partly drawn) [Example 412, N-(2-((2S)-2-(1-((1-(2-(2,6-dioxopiperidin-3-yl)-1,3-dioxoisoindolin-5-yl)azetidin-3-yl)methyl)piperidin-4-yl)-2-fluoroethyl)-6-morpholino-1-oxoisoindolin-5-yl)pyrazolo[1,5-a]pyrimidine-3-carboxamide] are 1 to 5 nM, 80 to 90% and “A (A represents a DC90 value <10.0 nM)”.
On to `CC(C)Oc1cc2c(cc1NC(=O)c1cnn3cccnc13)CN(C1CCC(N3CCC(c4ccc5c(c4)C(=O)N(C4CCC(=O)NC4=O)C5=O)CC3)CC1)C2=O` (centres unmarked) [Example 25], for which the half-maximal degradation concentration (DC50) lay within 1 to 5 nM, the Dmax was at least 90% and the “PBMC DC90” value was “A (A represents a DC90 value <10.0 nM)”.
For `CC(C)Oc1cc2c(cc1NC(=O)c1cnn3cccnc13)CN(C1CCN(CC3CCC4(CC3)CN(c3ccc5c(c3)C(=O)N(C3CCC(=O)NC3=O)C5=O)C4)CC1)C2=O` (centres unmarked) [Example 81] the same measures were under 1 nM, at least 90% and “A (A represents a DC90 value <10.0 nM)”.
For `O=C1CCC(N2C(=O)c3ccc(N4CC5(CCCN(C6CCC(n7cc8cc(NC(=O)c9cnn%10cccnc9%10)c(OCC9CC9)cc8n7)CC6)C5)C4)cc3C2=O)C(=O)N1` (centres unmarked) [Example 417, N-(6-(cyclopropylmethoxy)-2-(4-(2-(2-(2,6-dioxopiperidin-3-yl)-1,3-dioxoisoindolin-5-yl)-2,6-diazaspiro[3.5]nonan-6-yl)cyclohexyl)-2H-indazol-5-yl)pyrazolo[1,5-a]pyrimidine-3-carboxamide] the same measures were under 1 nM, at least 90% and “A (A represents a DC90 value <10.0 nM)”.
For `COC1(CN2CCC(n3cc4cc(NC(=O)c5cnn6cccnc56)c(OCC5CC5)cc4n3)CC2)CN(c2ccc3c(c2)C(=O)N(C2CCC(=O)NC2=O)C3=O)C1` (centres unmarked) [Example 234] the same measures were under 1 nM, 80 to 90% and “A (A represents a DC90 value <10.0 nM)”.
Turning to `CC(C)Oc1cc2c(cc1NC(=O)c1cnn3cccnc13)CN(C1CCN(C[C@H]3CCCN(c4ccc5c(c4)C(=O)N(C4CCC(=O)NC4=O)C5=O)C3)CC1)C2=O` (some centres unmarked) [Example 76], the DC50 is 1 to 5 nM; the Dmax was at least 90%; the “PBMC DC90” value was “B (B represents a DC90 value ≥10.0 nM and <25.0 nM)”.
